Test results as given in patent publication US20050215582A1, “Substituted pyrrolopyridines” (priority 2002, published 2005).
Structures can show the parent of a compound that is named as a salt.

Target: T1, recombinant human Itk kinase domain fused with GST (Homo sapiens, UniProt Q08881)
T1 construct: recombinant human Itk kinase domain fused with GST; GST (Glutathione S-Transferase); made in house; host or cells: High five insect cells
T1 sequence (Q08881 363-615 limits assumed): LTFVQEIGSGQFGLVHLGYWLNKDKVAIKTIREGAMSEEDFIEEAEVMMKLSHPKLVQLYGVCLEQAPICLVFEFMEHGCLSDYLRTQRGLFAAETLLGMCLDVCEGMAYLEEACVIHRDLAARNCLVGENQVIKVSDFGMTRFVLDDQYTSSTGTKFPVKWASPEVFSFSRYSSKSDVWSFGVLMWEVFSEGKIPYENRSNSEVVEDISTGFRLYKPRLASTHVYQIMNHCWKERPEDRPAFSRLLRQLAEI
Test: Itk LANCE TRF Assay
Format: biochemical
Conditions: 50 μM ATP, 2 μM biotinylated peptide substrate, 50 minutes RT; read-out: Inhibition of Kinase Itk (IC50 μM)
Protocol: The Itk kinase assay utilized recombinant human Itk kinase domain fused with GST (Glutathione S-Transferase). The protein was expressed in High five insect cells, purified in one step on an affinity chromatography glutathione column and stored in 50 mM Tris/HCl (pH 7.6), 150 mM NaCl, 5% (w/v) mannitol, 1 mM DTT, 30% glycerol at −70° C. The kinase substrate used in the assay was a biotinylated peptide derived from the Src-optimal substrate (Nair et at, J. Med. Chem., 38: 4276, 1995; biotin-AEEEIYGEFEAKKKK).
The assay additions were as follows: Test compounds (or controls; 1 μL in 100% DMSO) were added to black 96-well flat-bottomed plates (Greiner 655076) followed by 20 μL Itk in assay buffer and the reaction was started by adding 20 μL ATP and peptide substrate in assay buffer. The assay buffer constitution during phosphorylation was: 50 mM HEPES (pH 6.8), 10 mM MgCl2, 0.015% Brij 35, 1 mM DTT, 10% glycerol, 160 ng/well Itk, 2 μM peptide substrate and 50 μM ATP. The assay was stopped after 50 minutes (RT) by adding 150 μL ice-cold Stop solution (50 mM Tris/HCl, pH 7.5, 10 mM EDTA, 0.9% NaCl and 0.1% BSA) together with LANCE reagents (2 nM PT66-Eu^3+, Wallac AD0069 and 5 μg/ml Streptavidin-APC, Wallac AD0059. Both concentrations were final in stopped assay solution). The plates were measured on a Wallac 1420 Victor 2 instrument with TRF settings after 1 h incubation, and the ratio (665 signal/615 signal)*10000 was used to calculate the inhibition values. IC50 values were determined using XLfit.

| Compound | IC50 [µM] |
| --- | --- |
| CN(C)CCCOc1ccc(-c2[nH]c3ncc(Cl)cc3c2C2CCNCC2)cc1 [Example 8, {3-[4-(5-Chloro-3-piperidin-4-yl-1H-pyrrolo[2,3-b]pyridin-2-yl)phenoxy]propyl}dimethylamine] | 0.18 |
| COc1ccc(-c2[nH]c3ncc(Br)cc3c2N2CCNCC2)cc1 [Example 21, 5-Bromo-2-(4-methoxy-phenyl)-3-piperazin-1-yl-1H-pyrrolo[2,3-b]pyridine trifluoroacetate] | 0.09 |
| Cc1cnc2[nH]c(-c3ccco3)c(C3CCCN(C(N)=O)C3)c2c1 (stereo not drawn) [Example 5, 3-[2-(2-Furyl)-5-methyl-1H-pyrrolo[2,3-b]pyridin-3-yl]piperidine-1-carboxamide] | 0.26 |
